The Deep4Chem optical property database

Test: solvent given as SMILES

Question: For `CC(=O)[B-]1(C(C)=O)OC(C)=CC(c2ccc3ccccc3c2)=[O+]1`, which absorption maximum (in CC#N) is on record?
Answer: The absorption maximum was 380 nm.

Question: What about the absorption maximum (in ClC(Cl)(Cl)Cl) of the same compound?
Answer: Its absorption maximum is 380 nm.

Question: With `CC(C)[Si](C#Cc1ccc(C#Cc2c3cc4ccccc4cc3c(C#C[Si](C(C)C)(C(C)C)C(C)C)c3cc4ccccc4cc23)cc1)(C(C)C)C(C)C` as the compound, how does the absorption maximum (in ClCCl) read?
Answer: Its absorption maximum is 659 nm.

Question: Which absorption maximum (in CCO) does the source give for `O=C(c1cc(F)c(O)cc1F)c1cc(F)c(O)cc1F` here?
Answer: Its absorption maximum is 306 nm.

Question: Which absorption maximum (in C1CCOC1) does the source give for `CCc1s[c+](N2CCCCC2)sc1-c1cc(C)cc(I)c1[O-]` here?
Answer: The absorption maximum was 409 nm.

Question: What about the absorption maximum (in CC#N) of the same compound?
Answer: The absorption maximum was 405 nm.

Question: And the absorption maximum (in CO)?
Answer: The absorption maximum was 360 nm.

Question: What about the absorption maximum (in ClCCl) of the same compound?
Answer: Its absorption maximum is 406 nm.

Question: With `c1ccc(-c2ccc(-c3ccc(-c4cc(-c5ccc(-c6ccc(-c7ccccc7)cc6)cc5)cc(-c5ccc(-c6ccc(-c7ccccc7)cc6)cc5)c4)cc3)cc2)cc1` as the compound, how does the absorption maximum (in C1COCCO1) read?
Answer: Its absorption maximum is 306.5 nm.

Question: With `CCOC(=O)CN(CC(=O)OCC)c1ccc(-c2cc(-c3cccnc3)nc(-c3cccnc3)c2)cc1` as the compound, how does the absorption maximum (in CC#N) read?
Answer: Its absorption maximum is 328 nm.

Question: What about the absorption maximum (in CCOC(C)=O) of the same compound?
Answer: The absorption maximum was 328 nm.

Question: And the absorption maximum (in CN(C)C=O)?
Answer: Its absorption maximum is 334 nm.

Question: And the absorption maximum (in CS(C)=O)?
Answer: The absorption maximum was 338 nm.

Question: And the absorption maximum (in c1ccccc1)?
Answer: The absorption maximum was 328 nm.

Question: For `O=C1c2ccccc2C(=O)N1c1ccc(Cn2cncn2)cc1`, which absorption maximum (in C1CCOC1) is on record?
Answer: Its absorption maximum is 293 nm.

Question: What about the absorption maximum (in C1COCCO1) of the same compound?
Answer: Its absorption maximum is 284 nm.

Question: And the absorption maximum (in CC#N)?
Answer: Its absorption maximum is 315 nm.

Question: And the absorption maximum (in CC(C)=O)?
Answer: Its absorption maximum is 304 nm.

Question: What about the absorption maximum (in CC(C)O) of the same compound?
Answer: The absorption maximum was 306 nm.

Question: What about the absorption maximum (in CCCCCC) of the same compound?
Answer: Its absorption maximum is 278 nm.

Question: What about the absorption maximum (in CCCCO) of the same compound?
Answer: The absorption maximum was 302 nm.

Question: And the absorption maximum (in CCO)?
Answer: Its absorption maximum is 308 nm.

Question: And the absorption maximum (in CCOC(C)=O)?
Answer: Its absorption maximum is 290 nm.

Question: And the absorption maximum (in CCOCC)?
Answer: The absorption maximum was 289 nm.

Question: And the absorption maximum (in CN(C)C=O)?
Answer: Its absorption maximum is 314 nm.

Question: And the absorption maximum (in CO)?
Answer: Its absorption maximum is 312 nm.

Question: And the absorption maximum (in CS(C)=O)?
Answer: The absorption maximum was 320 nm.

Question: What about the absorption maximum (in Cc1ccccc1) of the same compound?
Answer: The absorption maximum was 283 nm.

Question: What about the absorption maximum (in ClCCl) of the same compound?
Answer: Its absorption maximum is 294 nm.

Question: With `Fc1ccc(C2=[N+]3C(=Nc4c5ccccc5c(-c5ccc(F)cc5)n4[B-]3(F)F)c3ccccc32)cc1` as the compound, how does the absorption maximum (in ClCCl) read?
Answer: Its absorption maximum is 713 nm.

Question: Which absorption maximum (in ClCCl) does the source give for `CCCCc1ccc(C#Cc2ccc3nc4ccc(C#Cc5ccc(CCCC)cc5)cn4c(=O)c3c2)cc1` here?
Answer: Its absorption maximum is 383 nm.

Question: With `CC(=O)O[B-]1(OC(C)=O)OC(/C=C/c2ccccc2)=CC(/C=C/c2ccccc2)=[O+]1` as the compound, how does the absorption maximum (in C1CCOC1) read?
Answer: The absorption maximum was 422 nm.

Question: What about the absorption maximum (in CC#N) of the same compound?
Answer: Its absorption maximum is 422 nm.

Question: And the absorption maximum (in CC(C)=O)?
Answer: Its absorption maximum is 422 nm.

Question: And the absorption maximum (in CS(C)=O)?
Answer: The absorption maximum was 428 nm.

Question: And the absorption maximum (in Cc1ccccc1)?
Answer: Its absorption maximum is 424 nm.

Question: And the absorption maximum (in ClC(Cl)Cl)?
Answer: Its absorption maximum is 426 nm.

Question: And the absorption maximum (in ClCCl)?
Answer: The absorption maximum was 424 nm.

Question: For `Cc1ccc2nc3[nH]c(=O)[nH]c(=O)c3nc2c1C`, which absorption maximum (in CC#N) is on record?
Answer: Its absorption maximum is 388 nm.

Question: With `CN(C)c1ccc(/C=C/c2nc(/C=C/c3ccc(N(c4ccccc4)c4ccccc4)cc3)cc(/C=C/c3ccc(N(c4ccccc4)c4ccccc4)cc3)n2)cc1` as the compound, how does the absorption maximum (in ClCCl) read?
Answer: The absorption maximum was 409 nm.

Question: Which results are given for `CC1=N/C(=C\c2ccc(C#N)c(N(C)C)c2)C(=O)N1C`?
Answer: absorption maximum (in C1CCOC1): 368 nm; absorption maximum (in CC#N): 369 nm; absorption maximum (in CCCCCC): 362 nm

Question: For `CCCCCCc1cc2c(s1)-c1cc3c(cc1NB2c1ccccc1)-c1sc(CCCCCC)cc1B(c1ccccc1)N3`, which absorption maximum (in ClCCl) is on record?
Answer: Its absorption maximum is 412 nm.

Question: With `COc1ccc2c(C#N)cc3ccc4cc(C#N)c5ccc(OC)cc5c4c3c2c1` as the compound, how does the absorption maximum (in ClC(Cl)Cl) read?
Answer: Its absorption maximum is 422 nm.

Question: Which absorption maximum (in C1CCOC1) does the source give for `c1cc2c3c(cccc3c1)-c1c-2c2c3ccccc3c3ccc4c5c6c(c7c8ccccc8c8ccc9c%10c%11c(c%12c%13ccccc%13c%13ccc%14c1c1c2c3c4c2c1c1c%14c%13c%12c%10c1c1c9c8c7c5c21)-c1cccc2cccc-%11c12)-c1cccc2cccc-6c12` here?
Answer: Its absorption maximum is 475 nm.

Question: With `COc1ccc2c(c1)CCC1=C(c3ccccc3)C3=Nc4c(-c5ccccc5)c5c(n4[B-](F)(F)[N+]3=C12)-c1ccc(OC)cc1CC5` as the compound, how does the absorption maximum (in ClC(Cl)Cl) read?
Answer: Its absorption maximum is 740 nm.

Question: With `Cc1cc(C)c(B2c3cc(C(C)(C)C)cc4ccc5ccc6cc(C(C)(C)C)cc2c6c5c34)c(C)c1` as the compound, how does the absorption maximum (in C1CCCCC1) read?
Answer: The absorption maximum was 427 nm.

Question: Which absorption maximum (in C1CCOC1) does the source give for `CCN(CC)c1ccc(-c2nc3c(c4c2-c2ccc(C#N)cc2CC4)-c2ccc(C#N)cc2CC3)cc1` here?
Answer: The absorption maximum was 364 nm.

Question: And the absorption maximum (in CC#N)?
Answer: The absorption maximum was 360 nm.

Question: And the absorption maximum (in CCCCCC)?
Answer: Its absorption maximum is 369 nm.

Question: What about the absorption maximum (in CCOC(C)=O) of the same compound?
Answer: Its absorption maximum is 358 nm.

Question: What about the absorption maximum (in CO) of the same compound?
Answer: Its absorption maximum is 360 nm.

Question: What about the absorption maximum (in CS(C)=O) of the same compound?
Answer: Its absorption maximum is 375 nm.

Question: And the absorption maximum (in Cc1ccccc1)?
Answer: Its absorption maximum is 368 nm.

Question: What about the absorption maximum (in ClCCl) of the same compound?
Answer: The absorption maximum was 363 nm.

Question: With `CC1=C(C(C)(C)C)C(C)=[N+]2C1=C(C)c1c(C)c(C(C)(C)C)c(C)n1[B-]2(F)F` as the compound, how does the absorption maximum (in C1CCCCC1) read?
Answer: The absorption maximum was 529 nm.

Question: What about the absorption maximum (in C1CCOC1) of the same compound?
Answer: Its absorption maximum is 525.1 nm.

Question: And the absorption maximum (in C1COCCO1)?
Answer: Its absorption maximum is 525.1 nm.

Question: And the absorption maximum (in CC#N)?
Answer: Its absorption maximum is 520.8 nm.

Question: And the absorption maximum (in CC(C)=O)?
Answer: Its absorption maximum is 522.5 nm.

Question: What about the absorption maximum (in CC(C)CC(C)(C)C) of the same compound?
Answer: Its absorption maximum is 527.5 nm.

Question: What about the absorption maximum (in CCC(C)C) of the same compound?
Answer: The absorption maximum was 527.1 nm.

Question: And the absorption maximum (in CCCC(C)=O)?
Answer: The absorption maximum was 523.7 nm.

Question: What about the absorption maximum (in CCCCCC) of the same compound?
Answer: The absorption maximum was 527.5 nm.

Question: What about the absorption maximum (in CCCCCCCCO) of the same compound?
Answer: Its absorption maximum is 527.3 nm.

Question: And the absorption maximum (in CCCCCCO)?
Answer: Its absorption maximum is 526.7 nm.

Question: And the absorption maximum (in CCCCO)?
Answer: The absorption maximum was 526.1 nm.

Question: What about the absorption maximum (in CCCCOC(C)=O) of the same compound?
Answer: The absorption maximum was 524.3 nm.

Question: And the absorption maximum (in CCCO)?
Answer: Its absorption maximum is 525.3 nm.

Question: What about the absorption maximum (in CCO) of the same compound?
Answer: Its absorption maximum is 524.3 nm.

Question: And the absorption maximum (in CCOC(C)=O)?
Answer: Its absorption maximum is 523.2 nm.

Question: And the absorption maximum (in CCOCC)?
Answer: The absorption maximum was 525.1 nm.

Question: What about the absorption maximum (in CN(C)C=O) of the same compound?
Answer: The absorption maximum was 524 nm.

Question: And the absorption maximum (in CNC=O)?
Answer: Its absorption maximum is 522.3 nm.

Question: What about the absorption maximum (in CO) of the same compound?
Answer: Its absorption maximum is 522.9 nm.

Question: What about the absorption maximum (in COC(C)=O) of the same compound?
Answer: The absorption maximum was 522.5 nm.

Question: And the absorption maximum (in OCC(F)(F)F)?
Answer: Its absorption maximum is 521.6 nm.
